Assay results taken from ChEMBL document CHEMBL1201862, “PubChem BioAssay data set” (2004).
Active and inactive are the calls of the source.

Assays:
Vero [1] = assay: mammalian cell viability reduction – secondary assay, cytotoxicity control for West Nile virus antiviral project, dose response (AID 1650); assay type: functional; conditions: Chlorocebus sabaeus
[2] = THP-1 cell cytotoxicity, dose response, cytotoxicity control for non-replicating M. tuberculosis project (AID 489025); assay type: functional
[3] = Luminescence Cell-Based Dose Retest to Confirm Inhibitors of Cancer Stem Cells. [Related pubchem assays (depositor defined):AID2717, AID2721]; assay type: functional; conditions: Homo sapiens
[4] = HepG2 cell cytotoxicity, dose response, cytotoxicity control for non-replicating M. tuberculosis project (AID 489018); assay type: functional; conditions: Mycobacterium tuberculosis
CAAX prenyl protease 2 = CAAX prenyl protease 2 (Saccharomyces cerevisiae S288c, UniProt Q03530); assay type: biochemical
CAAX prenyl protease 1 = CAAX prenyl protease 1 (Saccharomyces cerevisiae S288c, UniProt P47154); assay: yeast CAAX protease Ste24 inhibition – biochemical, S. cerevisiae, plate reader, cherry-pick, dose response (AID 488815)
Vero [5] = assay: cells; assay type: functional, cell-based; conditions: Chlorocebus sabaeus
Vero [6] = assay: cells; assay type: functional; conditions: Chlorocebus sabaeus

Sequence of CAAX prenyl protease 2 (Q03530 whole entry): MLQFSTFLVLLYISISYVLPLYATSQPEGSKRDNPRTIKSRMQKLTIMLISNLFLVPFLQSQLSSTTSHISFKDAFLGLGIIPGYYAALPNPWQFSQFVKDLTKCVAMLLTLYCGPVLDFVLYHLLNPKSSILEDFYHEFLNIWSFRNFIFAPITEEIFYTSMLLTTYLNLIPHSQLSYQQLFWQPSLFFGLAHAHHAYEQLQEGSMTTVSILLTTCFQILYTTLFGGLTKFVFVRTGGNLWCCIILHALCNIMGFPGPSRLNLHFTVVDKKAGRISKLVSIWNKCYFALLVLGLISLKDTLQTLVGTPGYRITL
Sequence of CAAX prenyl protease 1 (P47154 whole entry): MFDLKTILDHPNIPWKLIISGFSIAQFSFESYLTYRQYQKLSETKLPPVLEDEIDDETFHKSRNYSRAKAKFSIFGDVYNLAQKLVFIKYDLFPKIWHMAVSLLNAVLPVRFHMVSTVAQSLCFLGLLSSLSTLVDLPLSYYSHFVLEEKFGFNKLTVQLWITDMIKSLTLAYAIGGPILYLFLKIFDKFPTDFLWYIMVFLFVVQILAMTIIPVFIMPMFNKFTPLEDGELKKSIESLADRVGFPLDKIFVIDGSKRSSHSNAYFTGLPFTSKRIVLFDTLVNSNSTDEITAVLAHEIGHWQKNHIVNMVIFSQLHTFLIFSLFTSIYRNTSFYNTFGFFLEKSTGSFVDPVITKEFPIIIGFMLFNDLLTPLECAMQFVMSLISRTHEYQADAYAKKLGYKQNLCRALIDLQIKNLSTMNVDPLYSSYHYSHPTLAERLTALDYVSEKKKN

CCN(CC)CCNC(=O)c1[nH]c2ccc(OCc3ccccc3)cc2c1C
active: CC50 (Vero [1]) 29.4 µM | CC50 [2] 25.6 µM | AC50 [3] 1.18 µM | CC50 [4] 17 µM | AC50 (CAAX prenyl protease 2) 14.1 µM | AC50 (CAAX prenyl protease 1) 4.58 µM | IC50 (Vero [5]) > 25 µM | CC50 (Vero [6]) > 25 µM
